Measurements from patent publication US4616081A, “Cephalosporin compounds” (Asahi Kasei Kogyo Kabushiki Kaisha, priority 1982, dated 1986).

How the values were obtained:
E. coli W3630 = test: MIC against E. coli W3630; format: cell-based
Description: (§1) Nextly, antibacterial activity or minimum inhibitory concentration (MIC) was measured and the results are shown in Table 1 with respect to the following representative compounds according to the present invention. [drawing 19]
(§2) With respect to Compound Nos. 14 and 15, antibacterial activity or minimum inhibitory concentration (MIC) was measured and the results are shown in Table 2. [drawing 21]

[1] = test system: Klebs. pneumoniae ATCC 10031; test: MIC against Klebs. pneumoniae ATCC 10031; format: cell-based
Description: as §1, §2

Shigella sonnei E33 = test: MIC against Shigella sonnei E33; format: cell-based
Description: as §1, §2

Proteus morganii 0239 = test: MIC against Proteus morganii 0239; format: cell-based
Description: as §1, §2

E. coli W3630 RGN238 = test: MIC against E. coli W3630 RGN238; format: cell-based
[2] = test system: Citrobact. freundii GN346; test: MIC against Citrobact. freundii GN346; format: cell-based
Description: as §1, §2

E. coli W3630 RGN14 = test: MIC against E. coli W3630 RGN14; format: cell-based
[3] = test system: Enterobact. cloacae GN336; test: MIC against Enterobact. cloacae GN336; format: cell-based
Description: as §1, §2

Staph. pyogenes NY5 = test: MIC against Staph. pyogenes NY5; format: cell-based
Sarcina lutea ATCC 9341 = test: MIC against Sarcina lutea ATCC 9341; format: cell-based
Description: as §1, §2

[4] = test system: Salm. enteritidis Gaertner; test: MIC against Salm. enteritidis Gaertner; format: cell-based
Description: as §1, §2

[5] = maximum blood concentration after oral administration in Wister rats (HPLC and Bioassay); format: in vivo; settings: Wister rat, fasted, 30 mg/kg, solution of pH 7 in phosphate buffer
Description: Further in the compounds according to the present invention, intestinal absorption is improved by the introduction of amino acids at the 3-position thereof. For example, comparison of the maximum blood concentration of the Compound Nos. 2, 3, 7, 8, 14, 15 and 23 with that of Comparative Compound (b) establishes and affirms the effects, as is shown below. In the above test, the method for measurement of blood concentration was as follows. Rate: Wister rat weighing 170 to 220 g Dose: 30 mg/kg Wister rats were fasted from the previous night but freely accessible to water. Each of drugs was administered as a solution of pH 7 in a phosphate buffer, when orally administered. The blood concentration was measured in accordance with the High Performance Liquid Chromatography (HPLC) method and the Bioassay method by using E. coli as bacteria for test.

Serratia marcescens = test: MIC against Serratia marcescens; format: cell-based
Description: as §1, §2

Staph. aureus MS27 = test: MIC against Staph. aureus MS27; format: cell-based
Description: as §1, §2

Staph. aureus ATCC 6538P = test: MIC against Staph. aureus ATCC 6538P; format: cell-based
Description: as §1, §2

E. coli W3630 PS3 = test: MIC against E. coli W3630 PS3; format: cell-based
Description: as §1, §2

E. coli NIHJ-JC2 = test: MIC against E. coli NIHJ-JC2; format: cell-based
Description: as §1, §2

Proteus rettgeri ACR = test: MIC against Proteus rettgeri ACR; format: cell-based
Description: as §1, §2

E. coli 0205 = test: MIC against E. coli 0205; format: cell-based
[6] = test system: Enterobact. aerogenes 0655; test: MIC against Enterobact. aerogenes 0655; format: cell-based
Description: as §1, §2

[7] = acute toxicity test using mice, intraperitoneal; settings: mouse, in vivo, ip
Text: In addition to excellent antibacterial activity, the compounds of the present invention are low in toxicity. For example, in acute toxicity test using mice, the following results were obtained with Compound Nos. 2, 3, 7, 14, 15 and 23 which were intraperitoneally administered.

[8] = Bacterial count inoculated 10^6 cells/ml
[9] = Bacterial count inoculated 10^8 cells/ml
[10] = Table 3, second listing of the strain, head prints 10^6 cells/ml

SMILES: CO/N=C(\C(=O)N[C@@H]1C(=O)N2C(C(=O)O)=C(COC(C)=O)CS[C@H]12)c1csc(N)n1 [Comparative Compound (b), reference compound]
- Minimum Inhibitory Concentration (MIC) (E. coli W3630; [8]): ≤ 0.2
- Minimum Inhibitory Concentration (MIC) (E. coli W3630; [9]): 25
- Minimum Inhibitory Concentration (MIC) (E. coli W3630; [10]): 6.3
- Minimum Inhibitory Concentration (MIC) [1, 8]: ≤ 0.2
- Minimum Inhibitory Concentration (MIC) [1, 9]: 25
- Minimum Inhibitory Concentration (MIC) [1, 10]: 1.6
- Minimum Inhibitory Concentration (MIC) (Shigella sonnei E33; [8]): ≤ 0.2
- Minimum Inhibitory Concentration (MIC) (Shigella sonnei E33; [9]): 1.6
- Minimum Inhibitory Concentration (MIC) (Shigella sonnei E33; [10]): 3.1
- Minimum Inhibitory Concentration (MIC) (Proteus morganii 0239; [8]): ≤ 0.2
- Minimum Inhibitory Concentration (MIC) (Proteus morganii 0239; [9]): 50
- Minimum Inhibitory Concentration (MIC) (E. coli W3630 RGN238; [8]): ≤ 0.2
- Minimum Inhibitory Concentration (MIC) (E. coli W3630 RGN238; [10]): ≥ 100
- Minimum Inhibitory Concentration (MIC) [2, 8]: 25
- Minimum Inhibitory Concentration (MIC) [2, 9]: 100
- Minimum Inhibitory Concentration (MIC) (E. coli W3630 RGN14; [8]): ≤ 0.2
- Minimum Inhibitory Concentration (MIC) (E. coli W3630 RGN14; [10]): 100
- Minimum Inhibitory Concentration (MIC) [3, 8]: ≤ 0.2
- Minimum Inhibitory Concentration (MIC) [3, 9]: 50
- Minimum Inhibitory Concentration (MIC) [3, 10]: 50
- Minimum Inhibitory Concentration (MIC) (Staph. pyogenes NY5; [8]): ≤ 0.2
- Minimum Inhibitory Concentration (MIC) (Staph. pyogenes NY5; [9]): 0.2
- Minimum Inhibitory Concentration (MIC) (Sarcina lutea ATCC 9341; [8]): ≤ 0.2
- Minimum Inhibitory Concentration (MIC) (Sarcina lutea ATCC 9341; [9]): ≤ 0.2
- Minimum Inhibitory Concentration (MIC) [4, 8]: ≤ 0.2
- Minimum Inhibitory Concentration (MIC) [4, 9]: 6.3
- Cmax [5]: 200 ng/mL
- Minimum Inhibitory Concentration (MIC) (Serratia marcescens; [8]): ≤ 0.2
- Minimum Inhibitory Concentration (MIC) (Serratia marcescens; [9]): 50
- Minimum Inhibitory Concentration (MIC) (Serratia marcescens; [10]): > 100
- Minimum Inhibitory Concentration (MIC) (Staph. aureus MS27; [8]): 1.6
- Minimum Inhibitory Concentration (MIC) (Staph. aureus MS27; [9]): 3.1
- Minimum Inhibitory Concentration (MIC) (Staph. aureus ATCC 6538P; [8]): 1.6
- Minimum Inhibitory Concentration (MIC) (Staph. aureus ATCC 6538P; [9]): 3.1
- Minimum Inhibitory Concentration (MIC) (E. coli W3630 PS3; [8]): ≤ 0.2
- Minimum Inhibitory Concentration (MIC) (E. coli W3630 PS3; [9]): 25
- Minimum Inhibitory Concentration (MIC) (E. coli NIHJ-JC2; [9]): 6.3
- Minimum Inhibitory Concentration (MIC) (E. coli NIHJ-JC2; [10]): 25
- Minimum Inhibitory Concentration (MIC) (Proteus rettgeri ACR; [8]): ≤ 0.2
- Minimum Inhibitory Concentration (MIC) (Proteus rettgeri ACR; [10]): 100
- Minimum Inhibitory Concentration (MIC) (E. coli 0205; [8]): 0.4
- Minimum Inhibitory Concentration (MIC) (E. coli 0205; [10]): 50
- Minimum Inhibitory Concentration (MIC) [6, 8]: ≤ 0.2
- Minimum Inhibitory Concentration (MIC) [6, 9]: 50

SMILES: CCN1CCN(C(=O)NC(C(=O)NC2C(=O)N3C(C(=O)O)=C(CSc4nnnn4C)CSC23)c2ccc(O)cc2)C(=O)C1=O (stereo not shown) [Comparative Compound (c), reference compound]
- Minimum Inhibitory Concentration (MIC) (E. coli W3630; [8]): 0.4
- Minimum Inhibitory Concentration (MIC) (E. coli W3630; [9]): 25
- Minimum Inhibitory Concentration (MIC) [1, 8]: ≤ 0.2
- Minimum Inhibitory Concentration (MIC) [1, 9]: > 100
- Minimum Inhibitory Concentration (MIC) (Shigella sonnei E33; [8]): ≤ 0.2
- Minimum Inhibitory Concentration (MIC) (Shigella sonnei E33; [9]): ≤ 0.2
- Minimum Inhibitory Concentration (MIC) (Proteus morganii 0239; [8]): 0.8
- Minimum Inhibitory Concentration (MIC) (Proteus morganii 0239; [9]): > 100
- Minimum Inhibitory Concentration (MIC) [2, 8]: 50
- Minimum Inhibitory Concentration (MIC) [2, 9]: > 100
- Minimum Inhibitory Concentration (MIC) [3, 8]: ≤ 0.2
- Minimum Inhibitory Concentration (MIC) [3, 9]: 50
- Minimum Inhibitory Concentration (MIC) (Staph. pyogenes NY5; [8]): ≤ 0.2
- Minimum Inhibitory Concentration (MIC) (Staph. pyogenes NY5; [9]): 0.4
- Minimum Inhibitory Concentration (MIC) (Sarcina lutea ATCC 9341; [8]): ≤ 0.2
- Minimum Inhibitory Concentration (MIC) (Sarcina lutea ATCC 9341; [9]): ≤ 0.2
- Minimum Inhibitory Concentration (MIC) [4, 8]: 0.4
- Minimum Inhibitory Concentration (MIC) [4, 9]: 50
- Minimum Inhibitory Concentration (MIC) (Serratia marcescens; [8]): 0.8
- Minimum Inhibitory Concentration (MIC) (Serratia marcescens; [9]): > 100
- Minimum Inhibitory Concentration (MIC) (Staph. aureus MS27; [8]): 3.1
- Minimum Inhibitory Concentration (MIC) (Staph. aureus MS27; [9]): 50
- Minimum Inhibitory Concentration (MIC) (Staph. aureus ATCC 6538P; [8]): 1.6
- Minimum Inhibitory Concentration (MIC) (Staph. aureus ATCC 6538P; [9]): 1.6
- Minimum Inhibitory Concentration (MIC) (E. coli W3630 PS3; [8]): ≤ 0.2
- Minimum Inhibitory Concentration (MIC) (E. coli W3630 PS3; [9]): 25
- Minimum Inhibitory Concentration (MIC) (E. coli NIHJ-JC2; [8]): ≤ 0.2
- Minimum Inhibitory Concentration (MIC) (E. coli NIHJ-JC2; [9]): 6.3
- Minimum Inhibitory Concentration (MIC) [6, 8]: 0.8
- Minimum Inhibitory Concentration (MIC) [6, 9]: > 100

SMILES: CO/N=C(\C(=O)N[C@@H]1C(=O)N2C(C(=O)O)=C(CSc3nnc(CC(N)C(=O)O)s3)CS[C@H]12)c1csc(N)n1 (stereo partly shown) [Compound No. 7]
- Minimum Inhibitory Concentration (MIC) (E. coli W3630; [8]): ≤ 0.2
- Minimum Inhibitory Concentration (MIC) (E. coli W3630; [9]): 0.8
- Minimum Inhibitory Concentration (MIC) [1, 8]: ≤ 0.2
- Minimum Inhibitory Concentration (MIC) [1, 9]: 0.8
- Minimum Inhibitory Concentration (MIC) (Shigella sonnei E33; [8]): ≤ 0.2
- Minimum Inhibitory Concentration (MIC) (Shigella sonnei E33; [9]): 0.2
- Minimum Inhibitory Concentration (MIC) (Proteus morganii 0239; [8]): ≤ 0.2
- Minimum Inhibitory Concentration (MIC) (Proteus morganii 0239; [9]): 25
- Minimum Inhibitory Concentration (MIC) [2, 8]: 50
- Minimum Inhibitory Concentration (MIC) [2, 9]: 100
- Minimum Inhibitory Concentration (MIC) [3, 8]: ≤ 0.2
- Minimum Inhibitory Concentration (MIC) [3, 9]: 12.5
- Minimum Inhibitory Concentration (MIC) (Staph. pyogenes NY5; [8]): ≤ 0.2
- Minimum Inhibitory Concentration (MIC) (Staph. pyogenes NY5; [9]): 0.2
- Minimum Inhibitory Concentration (MIC) (Sarcina lutea ATCC 9341; [8]): ≤ 0.2
- Minimum Inhibitory Concentration (MIC) (Sarcina lutea ATCC 9341; [9]): ≤ 0.2
- Minimum Inhibitory Concentration (MIC) [4, 8]: ≤ 0.2
- Minimum Inhibitory Concentration (MIC) [4, 9]: 3.1
- Cmax [5]: 7000 ng/mL
- Minimum Inhibitory Concentration (MIC) (Serratia marcescens; [8]): ≤ 0.2
- Minimum Inhibitory Concentration (MIC) (Serratia marcescens; [9]): 100
- LD50 [7]: 9000 to 12000 mg/kg
- Minimum Inhibitory Concentration (MIC) (Staph. aureus MS27; [8]): 3.1
- Minimum Inhibitory Concentration (MIC) (Staph. aureus MS27; [9]): 3.1
- Minimum Inhibitory Concentration (MIC) (Staph. aureus ATCC 6538P; [8]): 1.6
- Minimum Inhibitory Concentration (MIC) (Staph. aureus ATCC 6538P; [9]): 3.1
- Minimum Inhibitory Concentration (MIC) (E. coli W3630 PS3; [8]): ≤ 0.2
- Minimum Inhibitory Concentration (MIC) (E. coli W3630 PS3; [9]): 1.6
- Minimum Inhibitory Concentration (MIC) (E. coli NIHJ-JC2; [8]): 0.4
- Minimum Inhibitory Concentration (MIC) (E. coli NIHJ-JC2; [9]): 0.2
- Minimum Inhibitory Concentration (MIC) [6, 8]: ≤ 0.2
- Minimum Inhibitory Concentration (MIC) [6, 9]: 25
